We go through one molecule from patent publication US20090176776A1, “SMALL MOLECULE INHIBITORS OF HIV-1 CAPSID ASSEMBLY” (UNIVERSITY OF ALABAMA AT BIRMINGHAM, priority 2005, published 2009).

Assay [1] addresses T1, recombinant HIV-1 capsid protein (CA) (Human immunodeficiency virus type 1 group M subtype B, UniProt P12493).
T1 construct: recombinant HIV-1 capsid protein (CA); made in house
Briefly: Turbidity based HIV-1 capsid assembly assay. In kind it is biochemical. To be noted: initial assembly rate by turbidity; twofold dilutions over a 128 fold range; 30 μM CA, 2.25 M NaCl. How it is done: The kinetics can be followed by monitoring the increase of turbidity using a spectrophotometer. The IC50 of the chemical compound tested is determined by titration. As the C-domain inhibits capsid assembly by forming CA-C-domain heterodimers, the effect of added C-terminal domain on the rate of assembly was evaluated by plotting the rate of assembly versus C-terminal domain concentration.
Soluble HIV-1 capsid protein can be triggered to assemble into tubes similar in diameter and morphology to intact cores by dilution into high iconic strength buffer. The kinetics of assembly can be followed by monitoring the increase in turbidity using a spectrophotometer (Lanham et al., J. Virol., 76:6900, 2002). This assembly assay was adapted to a 96-well, microplate format to allow for medium-throughput screening of compounds by measuring turbidity in a Nepeloskan Ascent plate reader (Thermo Electron Corp., UK). A DIVERSet™ library of 10,000 low molecular weight, “drug-like” compounds was purchased from ChemBridge Corp. (San Diego, Calif.). This library was selected for its potential bioavailability and application based on a pharmacophore diversity analysis. The average molecular weight of the compounds is 347 g/mol, the range being 200-596 g/mol. The compounds came plated in 96-well plates and solubilized in DMSO at 5 mgs/mL.
Turbidity based assay. A 1.5 μL aliquot of compound was diluted 90-fold into 50 mM Na2HPO4, […] buffer, pH 8 in an optically clear 96-well plate. The plate containing compounds and salt was read to check for compound solubility and to serve as a background reading for the assay. To initiate the assembly reaction, 15 μL of […] stock (in 50 mM Na2HPO4 pH 8) of recombinant HIV-1 capsid protein (CA), purified as described (Lanman et al., J. Virol., 76:6900, 2002), was added to each well of the 96-well plate using a multi-channel pipettor. […] Furthermore, the halftime of the assembly reaction is ˜5 minutes so reading the plate in thirds prevented loss of initial rate data. Therefore, CA was added to the first 4 lanes, the reactions followed for ten minutes, reading was paused, CA was then added to the next four lanes and the process repeated. Instrument settings are as follows: PMT gain of 500 V, lamp at 10V, and integration time of 60 ms. The data were exported to a custom designed Excel spreadsheet that allowed simultaneous plotting of kinetic curves.
Recombinant CA protein was purified as previously described and stored at 300 μM at −80° C. A turbidity based assembly assay, described above, was adapted to a 96-well, microplate format to allow for medium-throughput screening of compounds in a Nepheloskan Ascent plate reader (Thermo Electron Corp., UK). A 1.5 μL aliquot of compound or DMSO was diluted 90-fold into 50 mM Na2HPO4, 2.25 M NaCl buffer, pH 8 in an optically clear 96-well plate. To initiate the assembly reaction, 15 μL of the 300 μM stock (in 50 mM Na2HPO4 pH 8) of recombinant HIV-1 capsid protein (CA), was added to each well of the 96-well plate using a multi-channel pipettor.

The next assay deals with HIV-1NL43. Briefly: Anti-HIV assay (single round), p24 production by pNL43-transfected cells (ELISA). In kind it is cell-based. The conditions noted are these: p24 in supernatant of NL43-transfected 293T cells, 72 hours; read-out: p24 50%. How it is done: Anti-HIV Assays (Single Round). The inhibitory effect of the compounds on virus production and infectivity were determined by measuring the level of p24 produced in the presence of various concentrations of compounds from HEK-293 cells transiently transfected with pNL43 and by titering the virus on TZM-b1 cells. Briefly, 2.5×10^5 HEK-293 cells/ml were transfected with pNL43 using FuGene 6. Four hours post transfection the cells were plated in 96-well plates containing 100 μl of various concentrations of compounds (0-75 μM or 0-300 μM for mock transfected cells) in triplicate. At 72-hours post transfection virus supernatant was collected and stored at −80° C. until analysis. The level of p24 produced at each compound concentration was determined relative to the level produced in the presence of the DMSO only controls using HIV-1 p24 enzyme-linked immunosorbent assay (ELISA) (Beckman-Coulter). To determine the infectivity of the virus produced TZM-b1 cells were plated at 1×10^5 cells/ml in 100 μL in 96-well plates overnight. The next day, the media was replaced with 75 μL DMEM supplemented with 1% FBS, 1× PSG and 40 μg/ml DEAE Dextran and 25 μL of viral supernatant from the HEK-293 cells was added to each well. Three hours later 100 μL of DMEM with 7% FBS was added to each well. Two days after infection the cells were lysed and the level of luciferase expression was determined using the Bright-Glo assay.
FIGS. 12-18 show the anti-HIV assays for the examples of chemical compounds used according to the invention. After in-vitro assay, the chemical compounds in FIGS. 12-18 were selected for screening for cell viability and toxicity. Jurkat cells assay was used as screening assay. In Jurkat cells assay, JLTRG-R5 cells were used as Indicator cells and MOLT4 cells as Producer cells of NL43 and BAL virus. 96 chemical compounds were plated at seven different concentration from 75 μM to 0 μM at three-fold serial dilutions in 384 well plate. After five days, GFP expression was read. Cell viability was monitored with Alamar Blue assay. Luc M7 assay was designed to measure inhibitory activity of the chemical compounds to viral replication. After infection of cells with YU2 virus, plate cells in 96-well plate in the presence of six concentration of compounds in DMSO. At day 6, the number of cells in wells were read with Cell Titer Glo kit or by counting the number of cells infected with Bright Glo kit. 293T cells assay was designed to determine the toxicity. 293T cells were transfected with NL43. After four hours, transfected cells were plated in 96-well plate in DMSO and 2 μM Indinavir. 72 hours later, viral supernatant was collected and plated on JC53BL. Luciferase expression was measure after two days and p24 analysis was conducted with 1:1000 and 1:2000 dilutions.
(In general: An ELISA detects its analyte on a solid surface through an enzyme-linked reagent.)

On to `Cc1ncc(C[n+]2csc(CCOC(=O)C3C4CC5CC(C4)CC3C5)c2C)c(N)n1.Cl.[Cl-]` (centres unmarked) [Compound 26], for which the IC50 in assay [1] amounted to 28 µM; in the assay with HIV-1NL43, 60.2 µM.
